Earlier results in patent publication US8569273B2, “Ophthalmic formulations of cetirizine and methods of use” (Aciex Therapeutics, Inc., priority 2009, dated 2013).

Conditions: ophthalmic antihistamine

| SMILES | duration of action [h] |
| --- | --- |
| C[C@@H]1CN([C@H]2CC[C@](C#N)(c3ccc(F)cc3)CC2)CC[C@]1(C(=O)O)c1ccccc1 [levocabastine] | 2 to 4 |
| O=C(O)CCCN1CCC(O[C@@H](c2ccc(Cl)cc2)c2ccccn2)CC1 [bepotastine] | 8 |
